This passage reports melting point and Ki results from US6476051B2, “Antipsychotic heterocycle compounds” (Bristol-Myers Squibb Company, priority 1999, dated 2002).

Data set [1] deals with T1, recombinant human dopamine D2L receptors (Homo sapiens, UniProt P14416).
T1 construct: expressed in transfected cells; host or cells: HEK-293 (HEK-D2L cells), membrane homogenates
Briefly: Dopamine binding protocol ([3H]-spiperone binding, HEK-D2L cell membranes). The method, then:
Like many clinically effective antipsychotic agents, the compounds of Formula I also are antagonists at the human D2L receptor as determined by [^3H]-spiperone binding studies using human D2L receptors stably expressed in HEK-293 cells.
HEK-293 cells that stably express recombinant human dopamine D2L receptors (HEK-D2L cells) were grown at 37° C. in 5% CO2 as a monolayer in medium consisting of EMEM supplemented with 10% fetal bovine serum and G418 sulfate (500 μg/ml). To prepare membranes for radioligand binding experiments, cells were rinsed twice with phosphate-buffered saline (138 mM NaCl, 4.1 mM KCl, 5.1 mM Na2PO4, 1.5 mM […] 11.1 mM glucose, pH 7.4), and incubated for 5-10 min. at 4° C. in hypotonic lysis buffer consisting of 10 mM Tris (pH 7.4) and 5 mM EDTA. Cells were transferred from plates to polypropylene tubes (16×100 mm), homogenized and centrifuged at 32,000×g for 20 min. Following centrifugation, pellets were resuspended by homogenization in buffer consisting of 50 mM Tris (pH 7.7 at 25° C.) and 1 mM EDTA. Homogenates were stored at −80° C. until needed. On the day of an experiment, homogenates were thawed then centrifuged at 32,000×g for 20 min. Following centrifugation, supernatants were discarded and pellets were resuspended in assay buffer consisting of 50 mM Tris (pH 7.4 at 25° C.), 1 mM EDTA and 6 mM MgCl2. Membrane homogenates (˜5 μg) were incubated with 150 pM [^3H]-spiperone (Amersham Life Science) and increasing concentrations of test compounds for 1.5 hours at 22° C. in a total volume of 400 μl. Reactions were stopped by addition of ice-cold assay buffer and filtration over glass fiber filters (Whatman GFB, pre-soaked in 0.05% polyethylenimine) using a microtitre format Brandel cell harvester. Filters were washed with 3 ml of ice-cold assay buffer. Non-specific binding was defined with 2 μM (+)butaclamol. Ki values were calculated using the method of Cheng and Prusoff (1973). Protein concentrations were determined by the method of Bradford (1976) with BSA as a standard.
Test data IC50 values lower than 250 nM are considered to reflect affinity for dopamine D2L receptors.

Data set [2] concerns the target T2, human serotonin transporters (Homo sapiens, UniProt P31645).
T2 construct: expressed in transfected cells; host or cells: HEK-293 (HEK-hSERT cells), membrane homogenates
The experiment in a line: Serotonin transporter binding assay ([3H]-citalopram binding, HEK-hSERT cell membranes). The source says: The compounds of Formula I bind potently to the human 5-HT transporter and inhibit the re-uptake of endogenous serotonin. Selective serotonin reuptake inhibitors (SSRIs) are effective for the treatment of mental depression and have been reported to be useful for treating chronic pain (see: R. W. Fuller, Pharmacologic Modification of Serotonergic Function: Drugs for the Study and Treatment of Psychiatric and Other Disorders,” J. Clin. Psychiatry, 47:4 (Suppl.) April 1986, pp. 4-8). Compounds of the present invention are also envisioned to be useful for treating psychosis, acute mania, mild anxiety states or depression with secondary psychotic episodes. The present compounds are also envisioned to be useful in treating obsessive-compulsive disorders, feeding disorders, anxiety disorders and panic disorders.
HEK-293 cells that stably express human serotonin transporters (HEK-hSERT cells) were grown at 37° C. in 5% CO2 as a monolayer in medium consisting of EMEM supplemented with 10% fetal bovine serum and G418 sulfate (500 μg/ml). To prepare membranes for radioligand binding experiments, cells were rinsed twice with phosphate-buffered saline (138 mM NaCl, 4.1 mM KCl, 5.1 mM Na2PO4, 1.5 mM […], 11.1 mM glucose, pH 7.4). Cells were transferred from plates to polypropylene tubes (16×100 mm), centrifuged at 1,200×g for 5 min and were frozen at −80° C. until assay. Following centrifugation, pellets were resuspended by homogenization in buffer consisting of 50 mM Tris (pH 7.7 at 25° C.), 120 mM NaCl and 5 mM KCl and then centrifuged at 32,000×g for 10 min. Following centrifugation, supernatants were discarded and pellets were resuspended in buffer consisting of 50 mM Tris (pH 7.4 at 25° C.), 150 mM NaCl and 5 mM KCl. Membrane homogenates (200 μl/plate) were incubated with 1 nM [^3H]-citalopram (specific activity=85 Ci/mmol) and increasing concentrations of test compounds for 1 hour at 25° C. in a total volume of 250 μl. The assay buffer consisted of 50 mM Tris (pH 7.4 at 25° C.), 120 mM NaCl and 5 mM KCl (pH 7.4 with conc. HCl). Plates were incubated for 1 hour at 25° C., then filtered through 0.5% PEI treated Whatman GF/B filters using a Brandel cell harvester. Filters were washed three times with 3 ml of ice-cold tris wash buffer. Non-specific binding was defined with 10 μM fluoxetine. Amount of radioligand bound in the presence and absence of competitor was analyzed by plotting (−)log drug concentration versus the amount of radioligand specifically bound. The midpoint of the displacement curve (IC50, nM), signifies the potency. Ki values were calculated using the method of Cheng and Prusoff (1973).
Substances which inhibit the re-uptake of serotonin are recognized to be effective antidepressants (Selective Serotonin Reuptake Inhibitors. Edited by J P Feighner and W F Boyer, Chichester, England. John Wiley & Sons, 1991, pp 89-108). Test data IC50 values lower than 250 nM are considered to reflect activity as an inhibitor of serotonin re-uptake.

Setting [3] is: [3H]-spiperone, HEK-D2L membranes, read-out: dopamine D2L ligands with Ki.
Where [4] appears, read: [3H]-citalopram, HEK-hSERT membranes, read-out: inhibit the re-uptake of serotonin with Ki.

In general, melting point refers to the temperature of the solid-liquid transition. As a reminder, the Ki is the equilibrium dissociation constant of an inhibitor or competing ligand from its target.

Where a name gives a salt, the structure may show the parent alone. Read-outs that look alike come from different tables or passages of the source.

T2 sequence (P31645 whole entry): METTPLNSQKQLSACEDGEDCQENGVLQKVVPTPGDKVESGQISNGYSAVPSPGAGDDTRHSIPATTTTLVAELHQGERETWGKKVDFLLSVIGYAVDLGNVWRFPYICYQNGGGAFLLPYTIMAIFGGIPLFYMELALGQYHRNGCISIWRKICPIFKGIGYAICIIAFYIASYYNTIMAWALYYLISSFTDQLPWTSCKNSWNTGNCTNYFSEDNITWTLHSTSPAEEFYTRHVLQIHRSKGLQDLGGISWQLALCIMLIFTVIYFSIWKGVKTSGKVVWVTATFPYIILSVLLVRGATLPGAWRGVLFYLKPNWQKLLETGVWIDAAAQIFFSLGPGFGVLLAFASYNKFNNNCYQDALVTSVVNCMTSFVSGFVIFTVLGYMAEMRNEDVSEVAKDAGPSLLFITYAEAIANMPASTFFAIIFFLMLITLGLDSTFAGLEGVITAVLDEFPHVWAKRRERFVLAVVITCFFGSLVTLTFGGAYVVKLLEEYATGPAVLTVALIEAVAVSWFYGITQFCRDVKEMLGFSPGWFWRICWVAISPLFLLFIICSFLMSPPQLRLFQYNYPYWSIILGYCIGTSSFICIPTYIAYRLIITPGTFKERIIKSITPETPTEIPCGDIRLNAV
T1 sequence (P14416 whole entry): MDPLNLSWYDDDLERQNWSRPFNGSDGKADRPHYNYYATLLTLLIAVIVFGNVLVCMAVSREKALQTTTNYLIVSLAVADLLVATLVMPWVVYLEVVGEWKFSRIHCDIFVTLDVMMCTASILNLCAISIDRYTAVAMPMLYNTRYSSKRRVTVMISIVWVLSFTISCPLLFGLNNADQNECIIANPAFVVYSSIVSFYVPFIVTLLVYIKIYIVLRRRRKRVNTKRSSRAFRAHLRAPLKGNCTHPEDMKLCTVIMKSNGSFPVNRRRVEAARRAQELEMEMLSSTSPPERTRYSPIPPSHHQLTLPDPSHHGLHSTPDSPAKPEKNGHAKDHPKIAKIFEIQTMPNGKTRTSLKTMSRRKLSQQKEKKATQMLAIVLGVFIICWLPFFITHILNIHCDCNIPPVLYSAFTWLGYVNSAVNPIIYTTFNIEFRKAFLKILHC

With `Cc1nc2cc(OCCCN3CC=C(c4c[nH]c5ccc(C#N)cc45)CC3)ccc2s1` (as salt: HCl) [Example 12, 5-{3-[4-(5-cyanoindol-3-yl)-1,2,5,6-tetrahydropyrid-1-yl]propoxy}-2-methylbenzothiazole], the melting point is 263 to 265 °C.

Consider `Cc1nc2cc(OCCCCN3CC=C(c4c[nH]c5cc(Br)ccc45)CC3)ccc2s1` [Example 26, 5-{4-[4-(6-bromoindol-3-yl)1,2,5,6-tetrahydropyrid-1-yl]butoxy}-2-methylbenzothiazole], for which the Ki in data set [1] and in data set [2] was less than 100 nM in each case.

`Cc1nc2cc(OCCCCCN3CC=C(c4c[nH]c5cc(Br)ccc45)CC3)ccc2s1` [Example 27, 5-{5-[4-(6-bromoindol-3-yl)-1,2,5,6-tetrahydropyrid-1-yl]pentoxy}-2-methylbenzothiazole]: the Ki in data set [1] and in data set [2] was less than 100 nM throughout.

Consider `Cc1nc2cc(OCCCN3CC=C(c4c[nH]c5c(Br)cccc45)CC3)ccc2s1` [Example 28, 5-{3-[4-(7-bromoindol-3-yl)-1,2,5,6-tetrahydropyrid-1-yl]propoxy}-2-methylbenzothiazole], for which the Ki in data set [1] and in data set [2] was less than 100 nM throughout.

Take `Cc1nc2cc(OCCCCN3CC=C(c4c[nH]c5c(Br)cccc45)CC3)ccc2s1` [Example 29, 5-{4-[4-(7-bromoindol-3-yl)1,2,5,6-tetrahydropyrid-1-yl]butoxy}-2-methylbenzothiazole]: the Ki in data set [1] and in data set [2] was less than 100 nM each time.

Regarding `Cc1nc2cc(OCCCCCN3CC=C(c4c[nH]c5c(Br)cccc45)CC3)ccc2s1` [Example 30, 5-{5-[4-(7-bromoindol-3-yl)-1,2,5,6-tetrahydropyrid-1-yl]pentoxy}-2-methylbenzothiazole], the Ki in data set [1] and in data set [2] was less than 100 nM throughout.

Take `COc1ccc2[nH]cc(C3=CCN(CCCOc4ccc5sc(C)nc5c4)CC3)c2c1` [Example 31, 5-{3-[4-(5-methoxyindol-3-yl)-1,2,5,6-tetrahydropyrid-1-yl]propoxy}-2-methylbenzothiazole]: the Ki in data set [1] and in data set [2] was less than 100 nM in each case.

On to `COc1ccc2[nH]cc(C3=CCN(CCCCCOc4ccc5sc(C)nc5c4)CC3)c2c1` [Example 33, 5-{5-[4-(5-methoxyindol-3-yl)-1,2,5,6-tetrahydropyrid-1-yl]pentoxy}-2-methylbenzothiazole], for which the Ki in data set [1] and in data set [2] was less than 100 nM each time.

For `Cc1nc2cc(OCCCN3CC=C(c4c[nH]c5ccc(F)cc45)CC3)ccc2s1` [Example 34, 5-{3-[4-(5-fluoroindol-3-yl)-1,2,5,6-tetrahydropyrid-1-yl]propoxy}-2-methylbenzothiazole], the Ki in data set [1] and in data set [2] was less than 100 nM each time.

As for `Cc1nc2cc(OCCCN3CC=C(c4c[nH]c5ccc(Br)cc45)CC3)ccc2s1` [Example 36, 5-{3-[4-(5-bromoindol-3-yl)-1,2,5,6-tetrahydropyrid-1-yl]propoxy}-2-methylbenzothiazole], the Ki in data set [1] and in data set [2] was less than 100 nM in each case.

For `Cc1nc2cc(OCCCCN3CC=C(c4c[nH]c5ccc(C#N)cc45)CC3)ccc2s1` [Example 38, 5-{4-[4-(5-cyanoindol-3-yl)-1,2,5,6-tetrahydropyrid-1-yl]butoxy}-2-methylbenzothiazole], the Ki in data set [1] and in data set [2] was less than 100 nM each time.

Take `Cc1nc2cc(OCCCN3CCC(Cc4cccc5c4OCO5)CC3)ccc2s1` [Example 41, 5-{3-[4-(2H-benzo[d]1,3-dioxolan-4-ylmethyl)piperidinyl]propoxy}-2-methylbenzothiazole]: the Ki in data set [1] (setting [3]) and in data set [2] (setting [4]) was less than 100 nM throughout.

Take `Cc1nc2cc(OCCCN3CCC(Cc4cc(F)ccc4Br)CC3)ccc2s1` [Example 44, 5-(3-{4-[(2-bromo-5-fluorophenyl)methyl]piperidinyl}propoxy)-2-methylbenzothiazole]: the Ki in data set [1] (setting [3]) and in data set [2] (setting [4]) was less than 100 nM throughout.

As for `Cc1nc2cc(OCCCN3CCC(Cc4cc(F)ccc4F)CC3)ccc2s1` [Example 45, 5-(3-{4-[(2,-5-difluorophenyl)methyl]piperidinyl}propoxy)-2-methylbenzothiazole], the Ki in data set [1] (setting [3]) and in data set [2] (setting [4]) was less than 100 nM each time.
